Experimental data as given in patent US7521232B2, “Emissive species for clinical imaging” (ICx Nomadics, Inc., priority 2006, dated 2009).

Test: Solubility of isolated product in solvents
Type: physicochemical

Row | Structure (SMILES) | Solubility in hexanes (hexanes) | Solubility in water (water) | Solubility in DMF (DMF) | Solubility in acetone (acetone)
1 | OCCOCCOc1cc(I)c(OCCOCCO)cc1I | Not very soluble | Not very soluble |  | 
2 | Cc1ccc(S(=O)(=O)OCCOCCOc2cc(I)c(OCCOCCOS(=O)(=O)c3ccc(C)cc3)cc2I)cc1 |  |  | soluble | soluble
